Results published in US11524966B1 (Valo Early Discovery, Inc., priority 2017, dated 2022).
Like-named read-outs stand apart in the source and are kept apart here.

Biological target: T1, USP25 (USP25-His6, Boston Biochem E-546) (Homo sapiens, UniProt Q9UHP3)
T1 construct: His6; purchased Boston Biochem E-546
T1 sequence (Q9UHP3 1-1055): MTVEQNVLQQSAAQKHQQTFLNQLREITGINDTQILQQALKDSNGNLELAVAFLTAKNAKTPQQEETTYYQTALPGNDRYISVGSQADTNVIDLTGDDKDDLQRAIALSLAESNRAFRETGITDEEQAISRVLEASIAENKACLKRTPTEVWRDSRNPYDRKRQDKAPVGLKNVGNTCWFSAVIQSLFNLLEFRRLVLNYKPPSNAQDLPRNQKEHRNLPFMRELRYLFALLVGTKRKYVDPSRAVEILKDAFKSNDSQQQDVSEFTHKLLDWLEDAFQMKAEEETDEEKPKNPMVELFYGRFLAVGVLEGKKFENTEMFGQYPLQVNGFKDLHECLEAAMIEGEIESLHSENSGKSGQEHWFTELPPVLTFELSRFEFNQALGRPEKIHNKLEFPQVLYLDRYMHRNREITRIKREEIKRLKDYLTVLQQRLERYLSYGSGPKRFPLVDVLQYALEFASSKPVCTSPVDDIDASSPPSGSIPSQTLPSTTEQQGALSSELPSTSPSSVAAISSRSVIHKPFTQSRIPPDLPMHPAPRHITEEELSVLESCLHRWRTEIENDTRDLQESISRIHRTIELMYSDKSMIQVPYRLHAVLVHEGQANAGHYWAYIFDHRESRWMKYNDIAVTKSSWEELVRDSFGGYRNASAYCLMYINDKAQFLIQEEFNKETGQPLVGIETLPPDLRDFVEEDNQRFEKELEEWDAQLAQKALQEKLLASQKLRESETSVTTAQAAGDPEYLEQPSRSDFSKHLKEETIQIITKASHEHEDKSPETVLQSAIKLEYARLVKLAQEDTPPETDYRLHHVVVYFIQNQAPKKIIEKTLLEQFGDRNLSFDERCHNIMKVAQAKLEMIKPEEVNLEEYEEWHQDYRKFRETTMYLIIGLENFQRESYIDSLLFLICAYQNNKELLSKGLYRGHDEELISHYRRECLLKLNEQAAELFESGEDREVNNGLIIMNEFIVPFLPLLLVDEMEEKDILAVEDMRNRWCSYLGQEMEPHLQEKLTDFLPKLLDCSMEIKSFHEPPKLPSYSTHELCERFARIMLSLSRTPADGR
Assay: Ubiquitin-Rhodamine 110 Assay for USP25 Activity, Example A-2
Assay type: biochemical
Settings: read-out: USP25 A-2 IC50 range
Outline: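 75 pM USP25-His6 was preincubated 30 min with compound (10-point 3-fold series, 25 μM–1.3 nM) in pH 8.0 Tris buffer with BME, BGG and Triton X-100. Then 25 nM Ub-Rh110 (<<Km) was added for 45 min at room temperature, stopped with citric acid, fluorescence read at 485/535 nm, IC50 by 4-parameter fit.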

[1] = Ubiquitin-Rhodamine 110 assay, format Example A-2

| Structure (SMILES) | IC50 (Ub-Rh110 assay, Example A-2) [nM] | IC50 [1] [nM] |
| --- | --- | --- |
| Cc1ccc2c(N)c(C(=O)N[C@H]3COc4cc(N5CCN[C@@H](C)[C@H]5C)ccc4C3)sc2n1 (single isomer, unassigned) [Example 1-7] | 1 to 50 | – |
| Cc1nc2sc(C(=O)N[C@H]3CCc4cc(N5CCNCC5)ccc4C3)c(N)c2s1 (single isomer, unassigned) [Example 11-33] | – | > 2000 |
| Cc1nc2sc(C(=O)N[C@@H]3CCc4cc(N5CC6CCC(C5)N6)ccc4C3)c(N)c2s1 (single isomer, unassigned) [Example 12-2] | – | 200 to 2000 |
| Cc1ccc2c(N)c(C(=O)N[C@@H]3CCc4c(ccc(N5CC6CCC(C5)N6)c4C#N)C3)sc2n1 (single isomer, unassigned) [Example 14-1] | – | 50 to 200 |
| Cc1ccc2c(N)c(C(=O)N[C@H]3CCc4c(ccc(N5CC6CCC(C5)N6)c4C#N)C3)sc2n1 (single isomer, unassigned) [Example 14-2] | – | > 2000 |
| Cc1ccc2c(N)c(C(=O)N[C@@H]3CCc4cc(N5CC6CCC(C5)N6)c(C#N)cc4C3)sc2n1 (single isomer, unassigned) [Example 14-3] | – | > 2000 |
| Cc1ccc2c(N)c(C(=O)N[C@H]3CCc4cc(N5CC6CCC(C5)N6)c(C#N)cc4C3)sc2n1 (single isomer, unassigned) [Example 14-4] | – | 50 to 200 |
| Cc1cnc2c(N)c(C(=O)N[C@@H]3CCc4c(ccc(N5CC6CCC(C5)N6)c4C#N)C3)sc2n1 (single isomer, unassigned) [Example 14-5] | – | 50 to 200 |
| Cc1cnc2c(N)c(C(=O)N[C@H]3CCc4c(ccc(N5CC6CCC(C5)N6)c4C#N)C3)sc2n1 (single isomer, unassigned) [Example 14-6] | – | > 2000 |
| Cc1cnc2c(N)c(C(=O)N[C@@H]3CCc4cc(N5CC6CCC(C5)N6)c(C#N)cc4C3)sc2n1 (single isomer, unassigned) [Example 14-7] | – | > 2000 |
| Cc1cnc2c(N)c(C(=O)N[C@H]3CCc4cc(N5CC6CCC(C5)N6)c(C#N)cc4C3)sc2n1 (single isomer, unassigned) [Example 14-8] | – | 50 to 200 |
